Test results reported in US11339144B2 (Navitor Pharmaceuticals, Inc., priority 2017, dated 2022).

Assays:
Rheb = Rheb (Homo sapiens (Human), UniProt Q15382); assay: Affinity Selection Mass Spectrometry (ASMS); assay type: binding; settings: affinity (R3/R0) in Affinity Selection Mass Spectrometry assay
Experimental: Method 2 (Affinity Selection Mass Spectrometry
Protein: Rheb (19 KDa) in the following buffer: 20 mM Tris, pH 8.0, 200 mM NaCl, 2 mM DTT, 5 mM MgCl2 was prepared as under.
Human Rheb protein (I-169) was purified from BL21 (DE3) E. coli using a His-Smt-Rheb expression vector. The cell paste was lysed in lysis buffer (50 mM HEPES pH 7.5, 0.5 M NaCl, 5% Glycerol, 1% CHAPS, EDTA free protease inhibitor tablets, lysozyme to 1 mg/mL, benzonase 250U), sonicated, and purified on a HiTrap Ni Chelating Column (GE Healthcare) using the following buffer: 50 mM HEPES pH 7.5, 0.5 M NaCl, 5% Glycerol, and imidazole increasing in concentration from 5 mM to 500 mM. The His-Smt tag was cleaved using a U1p1 enzyme and dialyzed into 50 mM HEPES pH 7.5, 0.5 M NaCl, 5% Glycerol. The resultant protein was again purified on a Ni Chelating column to remove the U1p1 enzyme and His-Smt tag and then purified by size exclusion chromatography on a Sephacryl S-100 26/60 column into the following final buffer: 20 mM NaPhos pH 7.0, 100 mM NaCl, 5 mM MgCl2, 2 mM TCEP.
Concentrations: 60 μM Rheb, 180 μM GDP and 2 μM of each compound,
Ultrafiltration Filter (Sartorius, Germany) MW cutoff: 10 KDa
• (a) Sample preparation: Prepare sample for each group in 1.5 mL microcentrifuge tube according to the experimental design, total volume 550 μL. In a standard ASMS experiment there are two groups: Protein plus (P+L+) and protein minus (P−L+). • (b) Transfer 50 μL from the 550 μL to a vial as R0 sample. Incubate the rest solution for 30 min at room temperature. Then transfer the 500 μL into an ultrafiltration filter tube and centrifuge at 12×10^3 rpm for ˜10 min, leave about 50 μL solution (otherwise adjust this time). • (c) Add incubation buffer to the ultrafiltration filter tube to about 500 μL. Stir gently and centrifuge mixtures as above, leave about 50 μL solution. • (d) Repeat the step c. Transfer the remaining 50 μL upper layer solution to a new vial as R^3 sample. Sample Extraction: Add 150 μL MeCN to denature the protein completely. Centrifuge at 12×10^3 rpm for 5 min. Transfer the supernatant into LC-MS auto sampler vials for LC-MS analysis (5 uL injection).
Waters Acquity UPLC system, Waters ACQUITY UPLC BEH C18 column (2.1×50 mm, 1.7 μM); Mobile phase A: 0.1% formic acid solution, B: MeCN; 0.3 mL/min, 5 μL injection, gradient elution (Table 5).
Waters Synapt G1 Q-TOF system, positive or negative ion scan modes; Capillary voltage: 3.0 kV; Method: MSE; Mass range: m/z=100-1000; Source temperature: 120° C.; Desolvation temperature: 400° C.; Collision voltage: 35 V; Sampling Cone: 35 V; Extraction Cone: 4.0 V; Cone Gas: 50 L/h; Desolvation Gas: 800 L/h.

[1] = target: HA-GST-Rheb (GTP-γ-S loaded) activating mTORC1 (Homo sapiens (Human), UniProt Q15382); assay: Rheb-dependent in vitro kinase assay (Rheb-IVK; LanthaScreen or Western readout); assay type: biochemical; settings: Rheb-dependent in vitro kinase assay; read-out: IVK IC50
Chain of HA-GST-Rheb (GTP-γ-S loaded) activating mTORC1 (Q15382 1-181): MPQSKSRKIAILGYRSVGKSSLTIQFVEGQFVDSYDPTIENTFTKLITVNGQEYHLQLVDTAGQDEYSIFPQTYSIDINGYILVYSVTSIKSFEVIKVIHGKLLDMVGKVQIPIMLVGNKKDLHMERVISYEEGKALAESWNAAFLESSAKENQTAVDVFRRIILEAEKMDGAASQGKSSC

Chain of Rheb (Q15382 1-169 limits assumed): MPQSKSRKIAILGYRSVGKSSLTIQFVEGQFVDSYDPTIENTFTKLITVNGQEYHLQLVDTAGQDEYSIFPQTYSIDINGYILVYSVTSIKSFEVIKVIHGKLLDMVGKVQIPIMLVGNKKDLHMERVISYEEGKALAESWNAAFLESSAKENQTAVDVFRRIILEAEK

In the case of Brc1cc(Oc2ccccc2)cc2c1ccn2Cc1ccc(-c2nn[nH]n2)cc1 [I-220, 1-(4-(2H-tetrazol-5-yl)benzyl)-4-bromo-6-phenoxy-1H-indole], the “ASMS (R3/R0)” value (Rheb) is reported as “A (an affinity (R3/R0)>100%)” and the IC50 [1] is reported as < 10 µM.
For CN1CCC(CCNC(=O)c2ccc(-c3nc4cc(Cl)c(Cl)cc4[nH]3)cc2)CC1 [I-362], the “ASMS (R3/R0)” value (Rheb) was “A (an affinity (R3/R0)>100%)” and the IC50 [1] was > 100 µM.
In the case of OCc1cc2c(Br)cc(Oc3ccccc3)cc2[nH]1 [I-290, (4-Bromo-6-phenoxy-1H-indol-2-yl)methanol], the “ASMS (R3/R0)” value (Rheb) is reported as “B (an affinity (R3/R0) between 100% and 20%)” and the IC50 [1] is reported as 10 to 100 µM.
O=C(O)c1cc2c(Sc3ccc(OC(F)(F)F)cc3)cc(Cl)cc2[nH]1 [I-129, 6-chloro-4-(4-(trifluoromethoxy)phenylthio)-1H-indole-2-carboxylic acid] was tested, and the “ASMS (R3/R0)” value (Rheb) was “B (an affinity (R3/R0) between 100% and 20%)” and the IC50 [1] was 10 to 100 µM.
In the case of CN(C)C(=O)c1ccc(Cn2c(C(=O)O)cc3ccc(Sc4ccc(Oc5ccccc5)cc4)cc32)cc1 [I-17, 1-(4-(dimethylcarbamoyl)benzyl)-6-(4-phenoxyphenylthio)-1H-indole-2-carboxylic acid], the “ASMS (R3/R0)” value (Rheb) is reported as “B (an affinity (R3/R0) between 100% and 20%)” and the IC50 [1] is reported as < 10 µM.
With OCc1nc2c(OCC3CCCCC3O)cc(Cl)cc2[nH]1 (stereo not drawn) [I-390, 2-((6-chloro-2-(hydroxymethyl)-1H-benzo[d]imidazol-4-yloxy)methyl)cyclohexanol] the “ASMS (R3/R0)” value (Rheb) was “C (an affinity (R3/R0)<20%)” and the IC50 [1] was 100 to 300 µM.
In the case of Clc1cc(Oc2ccccc2Cl)c2cc[nH]c2c1 [I-202, 6-chloro-4-(2-chlorophenoxy)-1H-indole], the “ASMS (R3/R0)” value (Rheb) is reported as “B (an affinity (R3/R0) between 100% and 20%)” and the IC50 [1] is reported as 10 to 100 µM.
OCc1cc2cc(SCc3ccc(Cl)cc3)c(Cl)cc2[nH]1 [I-76, (6-chloro-5-(4-chlorobenzylthio)-1H-indol-2-yl)methanol] was tested, and the “ASMS (R3/R0)” value (Rheb) was “B (an affinity (R3/R0) between 100% and 20%)” and the IC50 [1] was 10 to 100 µM.
For O=C(O)c1cc2c(Oc3ccccc3)cc(Cl)cc2[nH]1 [I-175, 6-chloro-4-phenoxy-1H-indole-2-carboxylic acid], the “ASMS (R3/R0)” value (Rheb) was “B (an affinity (R3/R0) between 100% and 20%)” and the IC50 [1] was 100 to 300 µM.
OCc1cc2c(Sc3ccc(F)c(F)c3)cc(Cl)cc2[nH]1 [I-152, (6-chloro-4-(3,4-difluorophenylthio)-1H-indol-2-yl)methanol] was tested, and the “ASMS (R3/R0)” value (Rheb) was “B (an affinity (R3/R0) between 100% and 20%)” and the IC50 [1] was 10 to 100 µM.
C=Cc1nc2c(OCC3CCCCC3)c(Cl)c(Cl)cc2[nH]1 [I-345] was tested, and the “ASMS (R3/R0)” value (Rheb) was “B (an affinity (R3/R0) between 100% and 20%)” and the IC50 [1] was > 100 µM.
In the case of CN1CCC(N(C)C(=O)c2ccc(Cn3c(C(=O)O)cc4c(Br)cc(Oc5ccccc5)cc43)cc2)C1 (stereo not drawn) [I-46], the “ASMS (R3/R0)” value (Rheb) is reported as “C (an affinity (R3/R0)<20%)” and the IC50 [1] is reported as > 3 µM.
In the case of OCc1cc2c(Br)cc(OCCCc3ccccc3)cc2[nH]1 [I-235, (4-Bromo-6-(3-phenylpropoxy)-1H-indol-2-yl)methanol], the “ASMS (R3/R0)” value (Rheb) is reported as “B (an affinity (R3/R0) between 100% and 20%)” and the IC50 [1] is reported as 10 to 100 µM.
In the case of O=S(=O)(c1cccnc1)n1ccc2c(Sc3ccc(Cl)cc3)cc(Cl)cc21 [I-107], the “ASMS (R3/R0)” value (Rheb) is reported as “C (an affinity (R3/R0)<20%)” and the IC50 [1] is reported as > 100 µM.
In the case of O=C(O)c1nc2c(OCc3ccc(Cl)cc3)c(Cl)c(Cl)cc2[nH]1 [I-333], the “ASMS (R3/R0)” value (Rheb) is reported as “A (an affinity (R3/R0)>100%)” and the IC50 [1] is reported as 10 to 100 µM.
For c1ccc(Oc2cccc3c2nc(-c2ncco2)n3Cc2ccc(-c3nnn[nH]3)cc2)cc1 [I-421, 2-(1-(4-(1H-tetrazol-5-yl)benzyl)-4-phenoxy-1H-benzo[d]imidazol-2-yl)oxazole], the “ASMS (R3/R0)” value (Rheb) was “C (an affinity (R3/R0)<20%)” and the IC50 [1] was 10 to 100 µM.
With O=C(O)c1cc2c(Cl)cc(-c3ccccc3)cc2[nH]1 [I-48, 4-chloro-6-phenyl-1H-indole-2-carboxylic acid] the “ASMS (R3/R0)” value (Rheb) was “C (an affinity (R3/R0)<20%)” and the IC50 [1] was 10 to 100 µM.
In the case of Clc1ccc(Sc2cc(Cl)cc3[nH]ccc23)cc1 [I-180, 6-chloro-4-(4-chlorophenylthio)-1H-indole], the “ASMS (R3/R0)” value (Rheb) is reported as “B (an affinity (R3/R0) between 100% and 20%)” and the IC50 [1] is reported as 10 to 100 µM.
In the case of O=C(O)c1ccc(Cn2c(C(=O)O)cc3c(Br)cc(Oc4ccccc4)cc32)cc1 [I-165, 4-bromo-1-(4-carboxybenzyl)-6-phenoxy-1H-indole-2-carboxylic acid], the “ASMS (R3/R0)” value (Rheb) is reported as “B (an affinity (R3/R0) between 100% and 20%)” and the IC50 [1] is reported as 10 to 100 µM.
“5,6-dichloro-4-(4-chlorobenzyloxy)-1H-benzo[d]imidazole-2-carboxylic acid [I-330]” was tested, and the “ASMS (R3/R0)” value (Rheb) was “B (an affinity (R3/R0) between 100% and 20%)” and the IC50 [1] was > 100 µM.
In the case of Cc1ccc(Oc2cc(Cl)cc3[nH]c(CO)cc23)cc1C(F)(F)F [I-82, (6-Chloro-4-(4-methyl-3-(trifluoromethyl)phenoxy)-1H-indol-2-yl)methanol], the “ASMS (R3/R0)” value (Rheb) is reported as “B (an affinity (R3/R0) between 100% and 20%)” and the IC50 [1] is reported as < 10 µM.
With OCc1nc2cc(OCc3cccc(F)c3)c(Cl)cc2[nH]1 [I-484, (6-chloro-5-(3-fluorobenzyloxy)-1H-benzo[d]imidazol-2-yl)methanol] the “ASMS (R3/R0)” value (Rheb) was “B (an affinity (R3/R0) between 100% and 20%)” and the IC50 [1] was 100 to 300 µM.
OCc1cc2c(Cl)cc(Oc3ccccc3)cc2n1Cc1nc[nH]n1 [I-226] was tested, and the “ASMS (R3/R0)” value (Rheb) was “C (an affinity (R3/R0)<20%)” and the IC50 [1] was > 100 µM.
With Clc1ccc(Sc2cccc3[nH]ccc23)cc1 [I-246, 4-(4-chlorophenylthio)-1H-indole] the “ASMS (R3/R0)” value (Rheb) was “C (an affinity (R3/R0)<20%)” and the IC50 [1] was 10 to 100 µM.
For CN(C)C(=O)c1ccc(Cn2c(C(=O)O)cc3c(Br)cc(SC4CCOCC4)cc32)cc1 [I-12, 4-bromo-1-(4-(dimethylcarbamoyl)benzyl)-6-(tetrahydro-2H-pyran-4-ylthio)-1H-indole-2-carboxylic acid], the “ASMS (R3/R0)” value (Rheb) was “C (an affinity (R3/R0)<20%)” and the IC50 [1] was 10 to 100 µM.
O=C(O)c1cc2c(Sc3ccc(F)cc3)cc(Cl)cc2[nH]1 [I-156, 6-chloro-4-(4-fluorophenylthio)-1H-indole-2-carboxylic acid] was tested, and the “ASMS (R3/R0)” value (Rheb) was “B (an affinity (R3/R0) between 100% and 20%)” and the IC50 [1] was 10 to 100 µM.
In the case of O=C(O)c1cc2c(Cl)cc(-c3cc(Cl)cc(Cl)c3)cc2[nH]1 [I-47, 4-chloro-6-(3,5-dichlorophenyl)-1H-indole-2-carboxylic acid], the “ASMS (R3/R0)” value (Rheb) is reported as “B (an affinity (R3/R0) between 100% and 20%)” and the IC50 [1] is reported as 10 to 100 µM.
In the case of “1-(4-carboxybenzyl)-6-chloro-4-(3,4-dichlorophenoxy)-1H-indole-2-carboxylic acid [I-140]”, the “ASMS (R3/R0)” value (Rheb) is reported as “B (an affinity (R3/R0) between 100% and 20%)” and the IC50 [1] is reported as 10 to 100 µM.
Cc1cc(Sc2ccc(Cl)cc2)c2cc(C(=O)O)[nH]c2c1Br [I-64, 7-bromo-4-(4-chlorophenylthio)-6-methyl-1H-indole-2-carboxylic acid] was tested, and the “ASMS (R3/R0)” value (Rheb) was “B (an affinity (R3/R0) between 100% and 20%)” and the IC50 [1] was 10 to 100 µM.
For Clc1ccc2[nH]c(-c3cnco3)cc2c1Oc1ccccc1 [I-256, 5-(5-chloro-4-phenoxy-1H-indol-2-yl)oxazole], the “ASMS (R3/R0)” value (Rheb) was “B (an affinity (R3/R0) between 100% and 20%)” and the IC50 [1] was 10 to 100 µM.
For NC(=O)c1cc2c(Oc3ccccc3)cc(Cl)cc2[nH]1 [I-169, 6-chloro-4-phenoxy-1H-indole-2-carboxamide], the “ASMS (R3/R0)” value (Rheb) was “B (an affinity (R3/R0) between 100% and 20%)” and the IC50 [1] was 10 to 100 µM.
For CN(C)C(=O)c1ccc(Cn2c(C(=O)O)cc3c(Br)cc(Sc4ccc5ccccc5c4)cc32)cc1 [I-28, 4-bromo-1-(4-(dimethylcarbamoyl)benzyl)-6-(naphthalen-2-ylthio)-1H-indole-2-carboxylic acid], the “ASMS (R3/R0)” value (Rheb) was “B (an affinity (R3/R0) between 100% and 20%)” and the IC50 [1] was < 10 µM.
O=C(O)c1cc2nc(-c3ccnc4[nH]ccc34)[nH]c2c(Cl)c1Cl [I-327] was tested, and the “ASMS (R3/R0)” value (Rheb) was “C (an affinity (R3/R0)<20%)” and the IC50 [1] was > 100 µM.
